Laboratory results from US8598202B2, “Aryl-hydroxyethylamino-pyrimidines and triazines as modulators of fatty acid amide hydrolase” (Janssen Pharmaceutica NV, priority 2008, dated 2013).
pIC50: −log10 of the molar value. Where a name gives a salt, the structure may show the parent alone.

Columns and labels:
Rat FAAH-1 = biological target: T1, Rat FAAH-1 (Rattus norvegicus, UniProt P97612); assay: Assay Method 2: rat FAAH-1 assay, 3H-anandamide hydrolysis in homogenate of SK-N-MC cells transfected with rat FAAH
T1 sequence (P97612 1-579): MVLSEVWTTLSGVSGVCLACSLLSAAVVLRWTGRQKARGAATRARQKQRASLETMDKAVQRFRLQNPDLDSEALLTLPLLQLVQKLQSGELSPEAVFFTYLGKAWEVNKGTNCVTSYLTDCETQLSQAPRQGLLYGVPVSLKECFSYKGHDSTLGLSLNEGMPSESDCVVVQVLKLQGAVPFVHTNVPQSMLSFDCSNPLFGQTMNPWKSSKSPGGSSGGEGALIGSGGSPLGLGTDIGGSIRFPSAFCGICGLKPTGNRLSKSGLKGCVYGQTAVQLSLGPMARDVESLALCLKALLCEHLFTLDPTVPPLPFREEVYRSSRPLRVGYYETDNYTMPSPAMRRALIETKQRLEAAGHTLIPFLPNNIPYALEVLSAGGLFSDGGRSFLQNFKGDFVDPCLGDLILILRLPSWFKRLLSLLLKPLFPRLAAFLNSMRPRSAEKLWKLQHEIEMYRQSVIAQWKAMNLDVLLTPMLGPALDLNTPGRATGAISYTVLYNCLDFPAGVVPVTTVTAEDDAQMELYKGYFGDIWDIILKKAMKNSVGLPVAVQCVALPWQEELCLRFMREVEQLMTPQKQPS

FAAH = biological target: T2, FAAH (Homo sapiens, UniProt O00519); assay: Assay Method 1: FAAH assay, 3H-anandamide hydrolysis in homogenate of T84 cells or SK-N-MC cells transfected with human FAAH
T2 sequence (O00519 1-579): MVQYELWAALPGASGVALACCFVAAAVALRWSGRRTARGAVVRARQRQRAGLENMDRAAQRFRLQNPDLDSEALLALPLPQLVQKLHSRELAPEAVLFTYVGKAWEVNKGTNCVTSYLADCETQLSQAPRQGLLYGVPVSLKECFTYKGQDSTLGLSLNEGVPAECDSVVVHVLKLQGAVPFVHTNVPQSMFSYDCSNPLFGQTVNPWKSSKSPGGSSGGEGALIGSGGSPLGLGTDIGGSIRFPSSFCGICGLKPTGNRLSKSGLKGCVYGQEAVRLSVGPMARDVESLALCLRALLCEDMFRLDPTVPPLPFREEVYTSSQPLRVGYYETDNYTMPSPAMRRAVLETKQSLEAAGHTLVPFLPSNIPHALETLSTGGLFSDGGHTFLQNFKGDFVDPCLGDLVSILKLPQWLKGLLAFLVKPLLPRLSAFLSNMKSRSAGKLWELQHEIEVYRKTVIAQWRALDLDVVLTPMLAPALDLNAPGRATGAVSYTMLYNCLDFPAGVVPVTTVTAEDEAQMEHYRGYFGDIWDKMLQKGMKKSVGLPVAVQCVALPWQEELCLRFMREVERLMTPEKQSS

Structure (SMILES)	pIC50 (Rat FAAH-1)	pIC50 (FAAH)
O=[N+]([O-])c1ccc(-c2cc(NCC(O)c3ccccc3)ncn2)cc1 (stereo not shown) [Example 5, 2-{[6-(4-Nitrophenyl)pyrimidin-4-yl]amino}-1-phenylethanol trifluoroacetic acid salt]	6.82	6.88
CCc1ccc(-c2cc(NCC(O)c3ccccc3)ncn2)cc1 (stereo not shown) [Example 6, 2-{[6-(4-Ethylphenyl)pyrimidin-4-yl]amino}-1-phenylethanol]	6.63	7.48
CCOc1ccc(-c2cc(NCC(O)c3ccccc3)ncn2)cc1 (stereo not shown) [Example 11, 2-({6-[4-(Ethyloxy)phenyl]pyrimidin-4-yl}amino)-1-phenylethanol]	6.43	7.47
CC(C)Oc1ccc(-c2cc(NCC(O)c3ccccc3)ncn2)cc1 (stereo not shown) [Example 12, 2-[(6-{4-[(1-Methylethyl)oxy]phenyl}pyrimidin-4-yl)amino]-1-phenylethanol]	6.42	6.73
CC(=O)c1ccc(-c2cc(NC[C@H](O)c3ccccc3)ncn2)cc1 [Example 17, 1-[4-(6-{[(2R)-2-Hydroxy-2-phenylethyl]amino}pyrimidin-4-yl)phenyl]ethanone]	8.00	7.92
OCc1ccc(-c2cc(NC[C@H](O)c3ccccc3)ncn2)cc1 [Example 21, (1R)-2-([6-[4-(Hydroxymethyl)phenyl]pyrimidin-4-yl]amino)-1-Phenylethanol]	5.82	6.47
O=Cc1ccc(-c2cc(NC[C@H](O)c3ccccc3)ncn2)cc1 [Example 22, 4-(6-{[(2R)-2-Hydroxy-2-phenylethyl]amino}pyrimidin-4-yl)benzaldehyde]	6.57	7.09
CCOc1ccc(-c2cc(NC[C@H](O)c3ccccc3)ncn2)cc1C [Example 31, (1R)-2-{[6-(4-Ethoxy-3-methylphenyl)pyrimidin-4-yl]amino}-1-Phenylethanol trifluoroacetic acid salt]	7.68	8.52
O[C@@H](CNc1cc(-c2ccc(OCC3CC3)cc2)ncn1)c1ccccc1 [Example 32, (1R)-2-({6-[4-(Cyclopropylmethoxy)phenyl]pyrimidin-4-yl}amino)-1-phenylethanol trifluoroacetic acid salt]	6.00	7.04
CCCCOc1ccc(-c2cc(NC[C@H](O)c3ccccc3)ncn2)cc1F [Example 33, (1R)-2-{[6-(4-Butoxy-3-fluorophenyl)pyrimidin-4-yl]amino}-1-phenylethanol trifluoroacetic acid salt]	5.70	6.57
CCCOc1ccc(-c2cc(NC[C@H](O)c3ccccc3)ncn2)cc1F [Example 35, (1R)-2-{[6-(3-Fluoro-4-propoxyphenyl)pyrimidin-4-yl]amino}-1-Phenylethanol trifluoroacetic acid salt]	6.74	7.37
CC(C)Oc1ccc(-c2cc(NC[C@H](O)c3ccccc3)ncn2)cc1F [Example 36, (1R)-2-({6-[3-Fluoro-4-(1-methylethoxy)phenyl]pyrimidin-4-yl}amino)-1-phenylethanol trifluoroacetic acid salt]	7.70	8.10
CC(C)COc1ccc(-c2cc(NC[C@H](O)c3ccccc3)ncn2)cc1 [Example 37, (1R)-2-({6-[4-(2-Methylpropoxy)phenyl]pyrimidin-4-yl}amino)-1-phenylethanol trifluoroacetic acid salt]	5.10	6.40
Cc1cc(C)cc(-c2cc(NC[C@H](O)c3ccccc3)ncn2)c1 [Example 40, (1R)-2-{[6-(3,5-Dimethylphenyl)pyrimidin-4-yl]amino}-1-phenylethanol trifluoroacetic acid salt]	< 5.00	6.12
O[C@@H](CNc1cc(-c2cc(F)cc(C(F)(F)F)c2)ncn1)c1ccccc1 [Example 42, (1R)-2-({6-[3-Fluoro-5-(trifluoromethyl)phenyl]pyrimidin-4-yl}amino)-1-phenylethanol trifluoroacetic acid salt]	6.10	6.69
CCCOc1ccc(-c2cc(NC[C@H](O)c3ccccc3)ncn2)cc1 [Example 44, (1R)-1-Phenyl-2-{[6-(4-propoxyphenyl)pyrimidin-4-yl]amino}ethanol trifluoroacetic acid salt]	6.22	7.30
Cc1cc(-c2cc(NC[C@H](O)c3ccccc3)ncn2)ccc1OC(C)C [Example 46, (1R)-2-({6-[3-Methyl-4-(1-methylethoxy)phenyl]pyrimidin-4-yl}amino)-1-phenylethanol]	7.59	7.89
Cc1c(NC[C@H](O)c2ccccc2)ncnc1-c1ccc(C(F)(F)F)c(Cl)c1 [Example 47, (1R)-2-({6-[3-Chloro-4-(trifluoromethyl)phenyl]-5-methylpyrimidin-4-yl}amino)-1-phenylethanol trifluoroacetic acid salt]	6.29	7.59

Results, then the compound that gave them:

pIC50 (Rat FAAH-1)	pIC50 (FAAH)	Structure (SMILES)
6.77	7.13	OC(CNc1cc(-c2ccc(Cl)c(Cl)c2)ncn1)c1ccccc1 (stereo not shown) [Example 8, 2-{[6-(3,4-Dichlorophenyl)pyrimidin-4-yl]amino}-1-phenylethanol]
7.92	7.70	CC(C)Oc1ccc(-c2cc(NC[C@H](O)c3ccccc3)ncn2)cc1Cl [Example 19, (1R)-2-[(6-{3-Chloro-4-[(1-methylethyl)oxy]phenyl}pyrimidin-4-yl)amino]-1-phenylethanol]
6.74	7.49	Cc1ccc(-c2cc(NC[C@H](O)c3ccccc3)ncn2)cc1F [Example 20, (1R)-2-{[6-(3-Fluoro-4-methylphenyl)pyrimidin-4-yl]amino}-1-phenylethanol trifluoroacetic acid salt]
6.79	7.28	Cc1cc(-c2cc(NC[C@H](O)c3ccccc3)ncn2)ccc1Cl [Example 26, (1R)-2-{[6-(4-Chloro-3-methylphenyl)pyrimidin-4-yl]amino}-1-phenylethanol trifluoroacetic acid salt]
6.92	7.62	O[C@@H](CNc1cc(-c2ccc(Cl)c(F)c2)ncn1)c1ccccc1 [Example 27, (1R)-2-{[6-(4-Chloro-3-fluorophenyl)pyrimidin-4-yl]amino}-1-phenylethanol trifluoroacetic acid salt]
7.22	7.74	Cc1ccc(-c2cc(NC[C@H](O)c3ccccc3)ncn2)cc1Cl [Example 39, (1R)-2-{[6-(3-Chloro-4-methylphenyl)pyrimidin-4-yl]amino}-1-phenylethanol trifluoroacetic acid salt]
6.35	7.06	O[C@@H](CNc1cc(-c2cc(F)cc(Cl)c2)ncn1)c1ccccc1 [Example 43, (1R)-2-{[6-(3-Chloro-5-fluorophenyl)pyrimidin-4-yl]amino}-1-phenylethanol trifluoroacetic acid salt]
6.22	6.82	O[C@@H](CNc1cc(-c2ccc3nonc3c2)ncn1)c1ccccc1 [Example 45, (1R)-2-{[6-(2,1,3-Benzoxadiazol-5-yl)pyrimidin-4-yl]amino}-1-Phenylethanol trifluoroacetic acid salt]
